Series [1] is described as follows: AUC in Lewis rat at 10 mg/kg, po. The note with it: in vivo. Type of series: ADME, organism-based.
Series [2] addresses Disintegrin and metalloproteinase domain-containing protein 17 (Homo sapiens, UniProt P78536). In words: Inhibition of human TACE using Mca-PQGL-(3-[2,4-dinitrophenyl]-L-2,3-diaminopropionyl)-AR-OH as substrate measured after 2 to 4 hrs by fluorescence analysis.
Series [3] in a line: Ratio of plasma concentration in Lewis rat model of MIA at 30 mg/kg, po bid administered post 3 days MIA induction measured after 4 hrs of last dosage on day 7 to IC50 for human ADAMTS5 in presence of Lewis rat plasma. Type of series: ADME, organism-based. To be noted: in vivo.
Another series addresses T1, Matrilysin (Homo sapiens, UniProt P09237).
T1 sequence (P09237 whole entry): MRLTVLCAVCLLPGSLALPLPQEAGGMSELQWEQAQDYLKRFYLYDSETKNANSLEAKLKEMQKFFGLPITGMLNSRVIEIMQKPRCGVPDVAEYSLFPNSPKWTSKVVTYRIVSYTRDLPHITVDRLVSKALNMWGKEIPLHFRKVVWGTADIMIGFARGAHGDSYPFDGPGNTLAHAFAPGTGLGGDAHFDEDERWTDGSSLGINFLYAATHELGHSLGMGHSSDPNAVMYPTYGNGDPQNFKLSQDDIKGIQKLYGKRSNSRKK
In words: Inhibition of human MMP7 using Mca-PQGL-(3-[2,4-dinitrophenyl]-L-2,3-diaminopropionyl)-AR-OH as substrate measured after 2 to 4 hrs by fluorescence analysis.

A short description of series [4]: Plasma concentration in Lewis rat model of MIA at 100 mg/kg, po bid administered post 3 days MIA induction measured after 4 hrs of last dosage on day 7. The series is classed as ADME, organism-based.
Series [5] is described as follows: Plasma concentration in Lewis rat model of MIA at 30 mg/kg, po bid administered post 3 days MIA induction measured after 4 hrs of last dosage on day 7. Type of series: ADME, organism-based.
For series [6], the system named is Rattus norvegicus. Briefly: Reduction in ADAMTS-4/ADAMTS-5 mediated aggrecan cleavage products in Lewis rat model of MIA assessed as aggrecanase-cleaved fragments at 100 mg/kg, po bid administered post 3 days MIA induction measured after 4 hrs of last dosage on day 7 by NITEGE sandwich ELISA. Type of series: functional.
Another series deals with T2, Interstitial collagenase (Homo sapiens, UniProt P03956).
T2 sequence (P03956 whole entry): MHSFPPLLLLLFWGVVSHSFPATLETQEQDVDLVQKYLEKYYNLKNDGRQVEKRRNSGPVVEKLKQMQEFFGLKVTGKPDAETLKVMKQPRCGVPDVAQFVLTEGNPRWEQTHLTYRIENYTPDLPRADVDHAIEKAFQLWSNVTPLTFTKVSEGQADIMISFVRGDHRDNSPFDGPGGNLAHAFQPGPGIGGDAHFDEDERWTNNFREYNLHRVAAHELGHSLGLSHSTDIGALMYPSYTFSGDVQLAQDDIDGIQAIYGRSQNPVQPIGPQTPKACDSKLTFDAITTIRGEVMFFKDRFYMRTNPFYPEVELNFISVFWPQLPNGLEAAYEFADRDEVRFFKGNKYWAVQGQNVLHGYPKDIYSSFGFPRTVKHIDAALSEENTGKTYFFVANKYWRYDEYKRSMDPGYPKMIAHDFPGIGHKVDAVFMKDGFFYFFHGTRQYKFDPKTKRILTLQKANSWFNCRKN
In words: Inhibition of human MMP1 using Mca-PQGL-(3-[2,4-dinitrophenyl]-L-2,3-diaminopropionyl)-AR-OH as substrate measured after 2 to 4 hrs by fluorescence analysis.

Series [7] is described as follows: Ratio of plasma concentration in Lewis rat model of MIA at 10 mg/kg, po bid administered post 3 days MIA induction measured after 4 hrs of last dosage on day 7 to IC50 for human ADAMTS5 in presence of Lewis rat plasma. Type of series: ADME, organism-based. The note with it: in vivo.
Series [8] in a line: Ratio of plasma concentration in Lewis rat model of MIA at 45 mg/kg, po qd administered post 3 days MIA induction measured after 4 hrs of last dosage on day 7 to IC50 for human ADAMTS5 in presence of Lewis rat plasma. The note with it: in vivo. Type of series: ADME, organism-based.
Series [9] can be described thus: Volume of distribution at steady state in dog at 3 mg/kg, iv or 5 mg/kg, po. Type of series: ADME, organism-based, Canis lupus familiaris. To be noted: in vivo, read-out: Vdss.
A short description of series [10]: Half life in dog at 3 mg/kg, iv or 5 mg/kg, po. Type of series: ADME, organism-based, Canis lupus familiaris. To be noted: in vivo.
Series [11] in a line: Clearance in rat at 1 mg/kg, iv or 10 mg/kg, po. Type of series: ADME, organism-based. To be noted: in vivo.
Series [12] can be described thus: Oral bioavailability in dog at 5 mg/kg. To be noted: in vivo. The series is classed as ADME, organism-based, Canis lupus familiaris.
A short description of series [13]: Volume of distribution at steady state in cynomolgus monkey at 1 mg/kg, iv or 5 mg/kg, po. The series is classed as ADME, organism-based, Macaca fascicularis. The note with it: in vivo, read-out: Vdss.
The nature of series [14]: Dissociation constant, acidic pKa of the compound. The series is classed as physicochemical.
Series [15] can be described thus: Half life in cynomolgus monkey at 1 mg/kg, iv or 5 mg/kg, po. Type of series: ADME, organism-based, Macaca fascicularis. The note with it: in vivo.
Series [16] is described as follows: Lipophilicity, log P of the compound. The note with it: octanol/water. The series is classed as physicochemical.
A short description of series [17]: Fraction unbound in cynomolgus monkey plasma. The series is classed as ADME, cell-free, Macaca fascicularis.
Series [18] in a line: Fraction unbound in human liver microsomes. Type of series: ADME, Microsome. (Liver microsomes are a subcellular fraction often used to study metabolism.)
Series [19] in a line: Plasma concentration in Lewis rat model of MIA at 6 mg/mL, […] post 3 days MIA induction. The series is classed as ADME, organism-based.
Series [20] in a line: Half life in rat at 1 mg/kg, iv or 10 mg/kg, po. The series is classed as ADME, organism-based. To be noted: in vivo.
Series [21] has as its system Rattus norvegicus. In words: Reduction in ADAMTS-4/ADAMTS-5 mediated aggrecan cleavage products in Lewis rat model of MIA assessed as aggrecanase-cleaved fragments at 3 mg/kg, po bid administered post 3 days MIA induction measured after 4 hrs of last dosage on day 7 by NITEGE sandwich ELISA relative to vehicle control. The series is classed as functional, organism-based. In general terms: An ELISA detects its analyte on a solid surface through an enzyme-linked reagent.

Series [22] in a line: Fraction unbound in dog plasma. Type of series: ADME, cell-free, Canis lupus familiaris.
Series [23] relates to Rattus norvegicus. Briefly: Reduction in ADAMTS-4/ADAMTS-5 mediated aggrecan cleavage products in Lewis rat model of MIA assessed as aggrecanase-cleaved fragments at 30 mg/kg, po qd administered post 3 days MIA induction measured after 4 hrs of last dosage on day 7 by NITEGE sandwich ELISA. The series is classed as functional.
Series [24] in a line: Clearance in cynomolgus monkey at 1 mg/kg, iv or 5 mg/kg, po. Type of series: ADME, organism-based, Macaca fascicularis. The note with it: in vivo.
A short description of series [25]: Fraction unbound in rat plasma. Type of series: ADME, cell-free.
Series [26] is described as follows: Fraction unbound in human plasma. The series is classed as ADME, cell-free.
Series [27] is described as follows: Volume of distribution at steady state in rat at 1 mg/kg, iv or 10 mg/kg, po. The note with it: in vivo, read-out: Vdss. Type of series: ADME, organism-based.
Series [28] in a line: Oral bioavailability in cynomolgus monkey at 5 mg/kg. Type of series: ADME, organism-based, Macaca fascicularis. To be noted: in vivo.
A short description of series [29]: Clearance in dog at 3 mg/kg, iv or 5 mg/kg, po. Type of series: ADME, organism-based, Canis lupus familiaris. The note with it: in vivo.
Series [30] in a line: Solubility of the compound at pH 7.5. Type of series: physicochemical. The note with it: buffer.
Series [31] deals with Rattus norvegicus. In words: Reduction in ADAMTS-4/ADAMTS-5 mediated aggrecan cleavage products in Lewis rat model of MIA assessed as aggrecanase-cleaved fragments at 1.44 mg/mL, sc administered through infusion pump post 3 days MIA induction measured after 4 hrs of last dosage on day 7 by NITEGE sandwich ELISA. Type of series: functional.

Each structure is given as a SMILES string. Values after ≈ are worked out from the molar mass of the structure shown. Active and inactive are the calls of the source. No cut-off for these calls is given here.

Chain of Disintegrin and metalloproteinase domain-containing protein 17 (P78536 whole entry, the tested form may be a part): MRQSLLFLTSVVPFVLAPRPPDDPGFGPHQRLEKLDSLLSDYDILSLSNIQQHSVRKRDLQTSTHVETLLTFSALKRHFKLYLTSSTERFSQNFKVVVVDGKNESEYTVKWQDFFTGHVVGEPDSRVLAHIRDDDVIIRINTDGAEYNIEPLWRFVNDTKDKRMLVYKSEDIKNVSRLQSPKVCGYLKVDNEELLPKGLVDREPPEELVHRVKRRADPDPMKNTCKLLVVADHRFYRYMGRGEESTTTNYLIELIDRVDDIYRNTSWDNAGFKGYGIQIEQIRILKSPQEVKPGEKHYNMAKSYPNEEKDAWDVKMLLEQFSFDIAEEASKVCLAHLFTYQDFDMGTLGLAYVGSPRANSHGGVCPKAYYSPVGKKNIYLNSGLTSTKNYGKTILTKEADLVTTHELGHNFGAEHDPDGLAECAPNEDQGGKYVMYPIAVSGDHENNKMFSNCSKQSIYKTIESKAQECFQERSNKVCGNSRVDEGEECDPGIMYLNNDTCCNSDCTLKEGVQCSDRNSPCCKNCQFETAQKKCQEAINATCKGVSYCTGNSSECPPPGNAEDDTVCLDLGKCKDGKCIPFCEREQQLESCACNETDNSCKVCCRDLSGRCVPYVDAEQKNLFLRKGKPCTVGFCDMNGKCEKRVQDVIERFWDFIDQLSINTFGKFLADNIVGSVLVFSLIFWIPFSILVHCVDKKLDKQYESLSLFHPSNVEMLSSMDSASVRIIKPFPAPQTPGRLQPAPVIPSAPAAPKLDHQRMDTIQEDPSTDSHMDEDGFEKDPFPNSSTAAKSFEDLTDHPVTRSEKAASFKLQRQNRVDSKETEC

What is called AUC is concentration integrated over time. One may read the IC50 as the concentration that inhibits the measured activity by half. As for `CCn1ccnc1[C@]1(CNC(=O)c2cc3cc(Cl)ccc3o2)NC(=O)NC1=O`, the AUC in [1] stood at 20 µM·h. In addition, in series [2], 10 µM corresponded to half-maximal inhibition (IC50).
One may read the inhibition in vivo as the relative decrease from the control value, in per cent. For the compound `CCn1ccnc1[C@]1(CNC(=O)c2cc3cc(C(F)(F)F)ccc3o2)NC(=O)NC1=O`, the Ratio was 54 in series [3] and 14 in [7]. The IC50 against Matrilysin came out at 100 µM; at Interstitial collagenase, 100 µM; in series [2], 10 µM. Also, the exposure (AUC) in [1] was 28 µM·h. For the same compound, the concentration at 4 h in [4] is 11 µM; in series [5], 3.6 µM. Also, in the series with Rattus norvegicus [6], the inhibition in vivo at 100 mg/kg is 49%.
For `Cc1cnc([C@]2(CNC(=O)c3cc4cc(Cl)ccc4o3)NC(=O)NC2=O)n1C`, the AUC in series [1] came to 27 µM·h. The IC50 in [2] came to 8.9 µM.
A word on the half-life: it is the time in which the quantity being followed falls by half. A word on the bioavailability: it is the share of a dose that reaches the circulation, judged against a reference dose that is usually intravenous. One may read the pKa as the pH at which an ionisable group is half protonated. The logP is a log measure of how a compound divides between an organic and an aqueous phase. Usually fraction unbound stands for free concentration divided by total concentration. Regarding `O=C1NC(=O)[C@](CNC(=O)c2cc3cc(C(F)(F)F)ccc3o2)(C2CC2)N1`, the Ratio in [8] was 10. Also, the Vd in series [9] came to 0.92 L/kg; in series [13] it was 0.8 L/kg; in series [27], 3.6 L/kg. The half-life in series [10] was 9.1 h; in series [15] it was 12 h; in series [20], 3.8 h. Moreover, the clearance was determined as 13 mL/min/kg in series [11], 1 mL/min/kg in [24] and 1.3 mL/min/kg in [29]. Also, the 50% inhibitory concentration (IC50) is 100 µM against Matrilysin and 50 µM on Interstitial collagenase. Moreover, the bioavailability was determined as 74% in [12] and 100% in [28]. Also, the pKa in [14] came out at 8.52. The same compound had a logP in series [16] of 2.29. Further, the free fraction (fraction unbound) came to 0.229 in series [17]; 0.557 in series [18]; 0.215 in series [22]; 0.206 in series [25]; 0.255 in [26]. This compound also came in with a concentration at 72 h in [19] of 0.63 µM. The inhibition entry in the series with Rattus norvegicus [21] was “Active”. Also, the inhibition in vivo at 30 mg/kg with Rattus norvegicus [23] is 52%.
With `Cc1cnc([C@]2(CNC(=O)c3cc4cc(C(F)(F)F)ccc4o3)NC(=O)NC2=O)n1C`, the Ratio in [3] is listed as 76; in [7] it was 22. For the same compound, the figures for the IC50 (against Matrilysin; against Interstitial collagenase; in series [2]) were 100 µM, 100 µM and 10 µM, respectively. This compound came in with an exposure (AUC) in series [1] of 21 µM·h. In addition, the concentration at 4 h in series [4] turned out to be 31 µM; in [5] it was 4.8 µM. The inhibition in vivo at 100 mg/kg with Rattus norvegicus [6] was 62%.
In the case of `Cn1ccnc1[C@]1(CNC(=O)c2cc3cc(Cl)ccc3o2)NC(=O)NC1=O`, the figures for the IC50 (at Matrilysin; at Interstitial collagenase; in [2]) were 100 µM, 19 µM and 10 µM, respectively.
One may read the solubility as the concentration that dissolves in the medium under given conditions. Take `Cn1ccnc1[C@]1(CNC(=O)c2cc3cc(C(F)(F)F)ccc3o2)NC(=O)NC1=O`: the Vd in [9] amounted to 0.52 L/kg; in series [13] it was 0.59 L/kg; in series [27] it was 0.31 L/kg. In series [30], this compound showed a solubility of 1740 µg/mL (≈ 4.13 mM). In addition, the figures for the Ratio in [3] and in [7] were 46 and 15, respectively. Moreover, the half-life is 5.7 h in [10], 6.5 h in series [15] and 1.9 h in series [20]. For the same compound, the “inhibition (INH)” value in the series with Rattus norvegicus [31] came out at 16%. The clearance in series [11] came to 4.8 mL/min/kg; in series [24], 7.3 mL/min/kg; in series [29], 4.8 mL/min/kg. Further, the IC50 on Matrilysin and against Interstitial collagenase was 100 µM each time. Besides, the bioavailability in series [12] is 93%; in [28] it was 76%. The compound further had a pKa in [14] of 7.35. Besides, the lipophilicity (logP) in series [16] turned out to be 1.63. In addition, the unbound share (fraction unbound) in series [17] worked out at 0.248; in [18], 0.719; in series [22], 0.196; in [25], 0.143; in [26], 0.245. Also, the values for the concentration at 4 h in series [4] and in series [5] were 11 µM and 1.6 µM, respectively. In addition, the inhibition in vivo at 100 mg/kg in the series on Rattus norvegicus [6] amounted to 68%.

The values above are taken from ChEMBL document CHEMBL4425099, “Use of Osmotic Pumps to Establish the Pharmacokinetic-Pharmacodynamic Relationship and Define Desirable Human Performance Characteristics for Aggrecanase Inhibitors” (J Med Chem, 2016).
